Reference: ChEMBL document CHEMBL1156363, “Cytotoxic cyclic norterpene peroxides from a Red Sea sponge Diacarnus erythraenus” (J Nat Prod, 2001)

Assays:
Type in all cases: functional, cell-based
A549 = experiment: Cytotoxicity against human A549 cells
P388 = experiment: Cytotoxicity against mouse P388 cells
HT-29 = experiment: Cytotoxicity against human HT-29 cells

Measured: IC50

CO[C@@]1(C)CCC(C(C)C)=C[C@@H]2[C@H]1CC[C@]2(C)O
> 1 µg/mL: all assays above

CC(=O)CCCC(C)(C)C(=O)CC/C(C)=C/CC[C@@]1(C)CC[C@H]([C@H](C)C(=O)O)OO1 [AIKUPIKOXIDE A]
> 1 µg/mL: all assays above

C=C1CCCC(C)(C)C1(O)CC[C@@]1(C)CC[C@@H]([C@H](C)C(=O)OC)OO1 (stereo not given in full) [AIKUPIKOXIDE B]
> 1 µg/mL: all assays above

C=C(CCCC(C)(C)O)C(=O)CC[C@@]1(C)CC[C@@H]([C@H](C)C(=O)OC)OO1 [AIKUPIKOXIDE D]
> 1 µg/mL: all assays above

COC(=O)[C@@H](C)[C@@H]1CC[C@](C)(CCC(=O)C(C)(C)CCCC(C)=O)OO1 [DIACARPEROXIDE B]
> 1 µg/mL: all assays above
